Here are results for seven compounds from patent publication US9409905B2, “Antibacterial compounds and methods for use” (PTC THERAPEUTICS, INC., priority 2011, dated 2016).

For one assay, the system named is E. coli 25922. The assay is described as follows: Antibacterial activity, microbroth dilution MIC (Table 1). To be noted: Escherichia coli; microbroth dilution; control Gram-negative E. coli 25922 strain; read-out: MIC, 25922. In kind it is cell-based, Escherichia coli. The procedure, abridged:
(§1)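 Broth microdilution; endpoint = no macroscopic growth; value = lowest inhibiting concn, μg/mL.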
(Broth dilution looks for growth in wells or tubes with falling amounts of substance.)

For another assay, the system named is E. coli LZ3111. The assay is described as follows: Antibacterial activity, MIC, quinolone resistant strain (Table 2). In kind it is cell-based. To be noted: Escherichia coli, LZ3111, read-out: MIC LZ3111. The procedure, abridged:
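Broth microdilution. Read-out: MIC in μg/mL, taken as lowest concentration with no macroscopically visible growth.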

Assay [1] concerns Staphylococcus aureus (S. aureus) 29213. The assay is described as follows: Antibacterial activity, microbroth dilution MIC (Table 1). The conditions noted are these: microbroth dilution, Gram-positive S. aureus 29213, read-out: MIC, 29213. In kind it is cell-based. The procedure, abridged: as §1
Assay [2] has as its system Escherichia coli (E. coli) BAS849. The assay is described as above. In kind it is cell-based. To be noted: microbroth dilution, super sensitive Gram-negative E. coli BAS849, read-out: MIC, BAS849. The procedure, abridged:
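MIC (μg/mL) is taken as the lowest concentration with no macroscopically visible growth. Strains tested by microbroth dilution: Gram-positive S. aureus 29213, control Gram-negative E. coli 25922, and super-sensitive E. coli BAS849.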

The subject of assay [3] is Pseudomonas aeruginosa (P. aeruginosa) 27853. The assay is described as follows: Antibacterial activity, MIC (Table 5). To be noted: P. aeruginosa 27853, read-out: MIC, 27853. The format is cell-based. In a few lines:
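Microbroth dilution; MIC (μg/mL) = lowest concentration with no macroscopically visible growth.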

In assay [4] the test system is Acinetobacter baumannii (A. baumannii) BAA747. The assay is described as follows: Antibacterial activity, MIC (Table 4). In kind it is cell-based. To be noted: A. baumannii BAA747, read-out: MIC, BAA747. In a few lines:
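Values are minimum inhibitory concentrations in μg/mL from broth microdilution, meaning no macroscopically visible growth at that concentration. Resistant MXX isolates are multi-drug resistant clinical strains.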

The next assay relates to E. coli ELZ4000. Kind of assay: Antibacterial activity, MIC, multi-drug resistant clinical isolate (Table 3). In kind it is cell-based. To be noted: Escherichia coli, ELZ4000, read-out: MIC ELZ4000. The text has this:
(§2) The antibacterial activity from a microbroth dilution method may be presented as the minimum inhibitory concentration (MIC in μg/mL). The MIC value is the lowest concentration of drug which prevents macroscopically visible growth under test conditions.
(§3) Antibacterial activity of test compounds against E. coli ELZ4000 and E. coli ELZ4251 multi-drug resistant clinical isolates is shown in Table 3.

The subject of a further assay is E. coli ELZ4251. The assay is described as above. In kind it is cell-based. The conditions noted are these: Escherichia coli.
Source text: as §2, §3

Structures are written as SMILES. Values after ≈ are worked out from the molar mass of the structure shown.

One may read the MIC as the least concentration at which growth counts as inhibited. For `CCc1c(-c2ccc3c(c2)cc(CN2CCCC2CN(C)C)n3C)[nH]c(=O)c(C(=O)O)c1O` (centres unmarked) [Cpd 202, 6-(2-((2-((dimethylamino)methyl)pyrrolidin-1-yl)methyl)-1-methyl-1H-indol-5-yl)-5-ethyl-4-hydroxy-2-oxo-1,2-dihydropyridine-3-carboxylic acid], the MIC is 3.5 to 12.5 µg/mL (≈ 7.73 to 27.6 µM) in the assay on E. coli 25922; 3.5 to 12.5 µg/mL (≈ 7.73 to 27.6 µM) in the assay with E. coli LZ3111; 12.5 to 150 µg/mL (≈ 27.6 to 331 µM) in assay [1]; < 1 µg/mL in assay [2]; 12.5 to 150 µg/mL (≈ 27.6 to 331 µM) in assay [3]; 12.5 to 150 µg/mL (≈ 27.6 to 331 µM) in assay [4]. In addition, the MIC in the assay with E. coli ELZ4000 and in the assay with E. coli ELZ4251 was 12.5 to 150 µg/mL (≈ 27.6 to 331 µM) each time.

Regarding `CCc1c(-c2ccc3c(c2)cc(CN(C)C2CCCNC2)n3C)[nH]c(=O)c(C(=O)O)c1O` (centres unmarked) [Cpd 262, 5-ethyl-4-hydroxy-6-(1-methyl-2-((methyl(piperidin-3-yl)amino)methyl)-1H-indol-5-yl)-2-oxo-1,2-dihydropyridine-3-carboxylic acid], the MIC with E. coli 25922 lay within 3.5 to 12.5 µg/mL (≈ 7.98 to 28.5 µM); in the assay on E. coli LZ3111, 3.5 to 12.5 µg/mL (≈ 7.98 to 28.5 µM); in assay [1], 12.5 to 150 µg/mL (≈ 28.5 to 342 µM); in assay [2], 1 to 3.5 µg/mL (≈ 2.28 to 7.98 µM); in assay [3], 12.5 to 150 µg/mL (≈ 28.5 to 342 µM); with E. coli ELZ4000, 12.5 to 150 µg/mL (≈ 28.5 to 342 µM). This compound yielded a minimum inhibitory concentration (MIC) in the assay with E. coli ELZ4251 of 12.5 to 150 µg/mL (≈ 28.5 to 342 µM).

For `CCc1c(-c2ccc3c(c2)cc(CN(CC2CC2)C2CCNCC2)n3C)[nH]c(=O)c(C(=O)O)c1O` [Cpd 264, 6-(2-(((cyclopropylmethyl)(piperidin-4-yl)amino)methyl)-1-methyl-1H-indol-5-yl)-5-ethyl-4-hydroxy-2-oxo-1,2-dihydropyridine-3-carboxylic acid], the MIC with E. coli 25922 was in the range of 3.5 to 12.5 µg/mL (≈ 7.31 to 26.1 µM); with E. coli LZ3111, 1 to 3.5 µg/mL (≈ 2.09 to 7.31 µM); in assay [1], 3.5 to 12.5 µg/mL (≈ 7.31 to 26.1 µM); in assay [2] it was 1 to 3.5 µg/mL (≈ 2.09 to 7.31 µM); in assay [3], 12.5 to 150 µg/mL (≈ 26.1 to 313 µM); with E. coli ELZ4000, 12.5 to 150 µg/mL (≈ 26.1 to 313 µM). The same compound came in with a minimal inhibitory concentration (MIC) with E. coli ELZ4251 of 3.5 to 12.5 µg/mL (≈ 7.31 to 26.1 µM).

As for `CCc1c(-c2ccc3c(c2)cc(CN2C[C@H]4CC[C@@H](N(C)C)[C@H]4C2)n3C)[nH]c(=O)c(C(=O)O)c1O` [Cpd 278, 6-(2-(((3aR,4R,6aS)-4-(dimethylamino)hexahydrocyclopenta[c]pyrrol-2(1H)-yl)methyl)-1-methyl-1H-indol-5-yl)-5-ethyl-4-hydroxy-2-oxo-1,2-dihydropyridine-3-carboxylic acid], the MIC was 1 to 3.5 µg/mL (≈ 2.09 to 7.31 µM) in the assay on E. coli 25922; 3.5 to 12.5 µg/mL (≈ 7.31 to 26.1 µM) with E. coli LZ3111; 3.5 to 12.5 µg/mL (≈ 7.31 to 26.1 µM) in assay [1]; < 1 µg/mL in assay [2]; 12.5 to 150 µg/mL (≈ 26.1 to 313 µM) in assay [3]; 12.5 to 150 µg/mL (≈ 26.1 to 313 µM) with E. coli ELZ4000. In the assay with E. coli ELZ4251, the MIC is 12.5 to 150 µg/mL (≈ 26.1 to 313 µM).

For the compound `CCc1c(-c2ccc3c(c2)cc(CN2C[C@H]4CCC[C@@H](N)[C@H]4C2)n3C)[nH]c(=O)c(C(=O)O)c1O` [Cpd 284, 6-(2-(((3aR,4R,7aS)-4-amino-1H-isoindol-2(3H,3aH,4H,5H,6H,7H,7aH)-yl)methyl)-1-methyl-1H-indol-5-yl)-5-ethyl-4-hydroxy-2-oxo-1,2-dihydropyridine-3-carboxylic acid], the minimum inhibitory concentration (MIC) was 1 to 3.5 µg/mL (≈ 2.15 to 7.53 µM) in the assay on E. coli 25922; 3.5 to 12.5 µg/mL (≈ 7.53 to 26.9 µM) in the assay on E. coli LZ3111; 12.5 to 150 µg/mL (≈ 26.9 to 323 µM) in assay [1]; < 1 µg/mL in assay [2]; 3.5 to 12.5 µg/mL (≈ 7.53 to 26.9 µM) in assay [3]; 12.5 to 150 µg/mL (≈ 26.9 to 323 µM) in the assay with E. coli ELZ4000. In addition, the MIC against E. coli ELZ4251 fell in the range of 12.5 to 150 µg/mL (≈ 26.9 to 323 µM).

As for `CCc1c(-c2ccc3c(c2)cc(CN2C[C@H]4C[C@@H](N)C[C@H]4C2)n3C)[nH]c(=O)c(C(=O)O)c1O` [Cpd 287, 6-(2-(((3aR,5r,6aS)-5-aminohexahydrocyclopenta[c]pyrrol-2(1H)-yl)methyl)-1-methyl-1H-indol-5-yl)-5-ethyl-4-hydroxy-2-oxo-1,2-dihydropyridine-3-carboxylic acid], the MIC in the assay on E. coli 25922 is 3.5 to 12.5 µg/mL (≈ 7.77 to 27.7 µM); in the assay with E. coli LZ3111, 3.5 to 12.5 µg/mL (≈ 7.77 to 27.7 µM); in assay [1], 3.5 to 12.5 µg/mL (≈ 7.77 to 27.7 µM); in assay [2] it was < 1 µg/mL; in assay [3], 12.5 to 150 µg/mL (≈ 27.7 to 333 µM); with E. coli ELZ4000, 12.5 to 150 µg/mL (≈ 27.7 to 333 µM). This compound also gave an MIC in the assay with E. coli ELZ4251 of 12.5 to 150 µg/mL (≈ 27.7 to 333 µM).

Consider `CCc1c(-c2ccc3c(c2)cc(CN2C[C@H]4C[C@@H](N(C)Cc5ccccc5)C[C@H]4C2)n3C)[nH]c(=O)c(C(=O)O)c1O` [Cpd 288, 6-(2-(((3aR,5r,6aS)-5-(benzyl(methyl)amino)hexahydrocyclopenta[c]pyrrol-2(1H)-yl)methyl)-1-methyl-1H-indol-5-yl)-5-ethyl-4-hydroxy-2-oxo-1,2-dihydropyridine-3-carboxylic acid], for which the MIC with E. coli 25922 was 1 to 3.5 µg/mL (≈ 1.8 to 6.31 µM); in the assay with E. coli LZ3111, 12.5 to 150 µg/mL (≈ 22.5 to 270 µM); in assay [1], 3.5 to 12.5 µg/mL (≈ 6.31 to 22.5 µM); in assay [2], < 1 µg/mL; in assay [3] it was 12.5 to 150 µg/mL (≈ 22.5 to 270 µM); in the assay on E. coli ELZ4000 it was 12.5 to 150 µg/mL (≈ 22.5 to 270 µM). The minimum inhibitory concentration (MIC) against E. coli ELZ4251 lay in the range of 12.5 to 150 µg/mL (≈ 22.5 to 270 µM).
